In brackets after ≈: the same amount, converted by molar mass.
What was measured:
Assay type in all cases: functional
[1] = system: Cryptococcus neoformans; assay: In vitro antifungal activity against Cryptococcus neoformans CY1057 was determined at pH 7 for inoculum size of 1*10e4 cfu/ml by broth dilution method
[2] = system: Candida albicans; assay: In vitro antifungal activity against Candida albicans CY3003 was determined at pH 7 for inoculum size of 1*10e4 cfu/ml by broth dilution method
[3] = system: Candida albicans; assay: In vitro antifungal activity against Candida albicans CY1002 was determined at pH 7 for inoculum size of 1*10e4 cfu/ml by broth dilution method
[4] = system: Aspergillus fumigatus; assay: In vitro antifungal activity against Aspergillus fumigatus CF1003 was determined at pH 7 for inoculum size of 1*10e4 cfu/ml by broth dilution method
[5] = system: Cryptococcus neoformans; assay: In vitro antifungal activity against Cryptococcus neoformans CY1059 was determined at pH 7 for inoculum size of 1*10e4 cfu/ml by broth dilution method
[6] = system: Candida albicans; assay: In vitro antifungal activity against Candida albicans CY1005 was determined at pH 7 for inoculum size of 1*10e4 cfu/ml by broth dilution method
[7] = system: Aspergillus fumigatus; assay: In vitro antifungal activity against Aspergillus fumigatus CF1004 was determined at pH 7 for inoculum size of 1*10e4 cfu/ml by broth dilution method

Row | SMILES | IC80 [1] [µg/mL] | IC80 [2] [µg/mL] | IC80 [3] [µg/mL] | IC80 [4] [µg/mL] | IC80 [5] [µg/mL] | IC80 [6] [µg/mL] | IC80 [7] [µg/mL]
1 | CCCCCCC/C=C/C[C@@H]1OC[C@H](C)[C@H](OC)[C@H]1COC(=O)CN | 2.19 (≈ 6.16 µM) | 0.97 (≈ 2.73 µM) | 1.8 (≈ 5.06 µM) | 0.73 (≈ 2.05 µM) | 3.2 (≈ 9 µM) | 1.58 (≈ 4.44 µM) | 0.52 (≈ 1.46 µM)
2 | CCc1ccc(CC[C@@H]2CCC(C)(C)[C@H](OC)[C@H]2Cn2ccnc2)cc1 | 0.12 (≈ 0.338 µM) | 0.0025 (≈ 0.00705 µM) | 0.059 (≈ 0.166 µM) | 0.37 (≈ 1.04 µM) | 0.14 (≈ 0.395 µM) | 0.012 (≈ 0.0338 µM) | 0.19 (≈ 0.536 µM)
3 | OC(Cn1cncn1)(Cn1cncn1)c1ccc(F)cc1F [FLUCONAZOLE] | 3.8 (≈ 12.4 µM) | 1.1 (≈ 3.59 µM) | 2.6 (≈ 8.49 µM) | 200 (≈ 653 µM) | 11 (≈ 35.9 µM) | 2.8 (≈ 9.14 µM) | 180 (≈ 588 µM)
4 | CCc1ccc(CC[C@@H]2CCC(C)(C)[C@H](OC)[C@H]2Cn2cncn2)cc1 | 0.82 (≈ 2.31 µM) | 0.012 (≈ 0.0338 µM) | 0.098 (≈ 0.276 µM) | > 200 | 0.37 (≈ 1.04 µM) | 0.042 (≈ 0.118 µM) | > 200
5 | CCC(C)n1ncn(-c2ccc(N3CCN(c4ccc(OC[C@H]5CO[C@](Cn6cncn6)(c6ccc(Cl)cc6Cl)O5)cc4)CC3)cc2)c1=O (stereo not given in full) [ITRACONAZOLE] | 0.022 (≈ 0.0312 µM) | 0.0012 (≈ 0.0017 µM) | 0.03 (≈ 0.0425 µM) | 0.02 (≈ 0.0283 µM) | 0.046 (≈ 0.0652 µM) | 0.0056 (≈ 0.00794 µM) | < 0.0004

— ChEMBL document CHEMBL1151576, “Synthesis of cyclohexyl analogs of restricticin” (Bioorg Med Chem Lett, 1994)
